Results reported in PubChem BioAssay AID1745844 (Carcinogenic Potency Database (CPDB), 2022).
Active and inactive are the calls of the source. How the calls were made is not given here.

Test system: rodent lifetime carcinogenesis bioassay, tumor incidence TD50
Assay: carcinogenic potency in animals, long-term in vivo studies, CPDB compilation (AID 1745844)
[1] = mouse, strain B6C3F1, males, in feed, site: any site (literature study), lesion: several types, types named in the paper, dosed 103 weeks, study length 104 weeks
[2] = mouse, strain B6C3F1, males, in feed, site: liver, lesion: hepatocellular adenoma + hepatocellular carcinoma + neoplastic nodule, dosed 103 weeks, study length 104 weeks

## O=[N+]([O-])c1ccc(-c2cscn2)o1
rat, strain Sprague-Dawley albino, females, in feed, site: any site (literature study), lesion: several types, types named in the paper, dosed 46 weeks, study length 68 weeks
  TD50: 7.68 mg/kg/day
rat, strain Sprague-Dawley albino, females, in feed, site: forestomach, lesion: squamous-cell carcinoma, dosed 46 weeks, study length 68 weeks
  TD50: 19.5 mg/kg/day
rat, strain Sprague-Dawley albino, females, in feed, site: mammary gland, lesion: fibroadenoma, dosed 46 weeks, study length 68 weeks
  TD50: 15.6 mg/kg/day

## CCOCCc1c(-c2ccccc2)nc(N)n2ncnc12
rat, strain Charles River CD (Sprague-Dawley), females, in feed, site: liver, lesion: hepatocellular adenoma, dosed 97 weeks, study length 105 weeks
  TD50: 307 mg/kg/day
rat, strain Charles River CD (Sprague-Dawley), females, in feed, site: liver, lesion: hepatocellular carcinoma, dosed 97 weeks, study length 105 weeks
  TD50: 646 mg/kg/day
rat, strain Charles River CD (Sprague-Dawley), females, in feed, site: mammary gland, lesion: adenoma, dosed 97 weeks, study length 105 weeks
  TD50: 3010 mg/kg/day
rat, strain Charles River CD (Sprague-Dawley), females, in feed, site: mammary gland, lesion: carcinoma, dosed 97 weeks, study length 105 weeks
  TD50: 669 mg/kg/day
rat, strain Charles River CD (Sprague-Dawley), females, in feed, site: thyroid gland, lesion: adenoma, dosed 97 weeks, study length 105 weeks
  TD50: 9710 mg/kg/day
rat, strain Charles River CD (Sprague-Dawley), males, in feed, site: liver, lesion: hepatocellular adenoma, dosed 97 weeks, study length 105 weeks
  TD50: 2530 mg/kg/day
rat, strain Charles River CD (Sprague-Dawley), males, in feed, site: liver, lesion: hepatocellular carcinoma, dosed 97 weeks, study length 105 weeks
  TD50: 4160 mg/kg/day
rat, strain Charles River CD (Sprague-Dawley), males, in feed, site: thyroid gland, lesion: adenoma, dosed 97 weeks, study length 105 weeks
  TD50: 11000 mg/kg/day
rat, strain Charles River CD (Sprague-Dawley), males, in feed, site: thyroid gland, lesion: carcinoma, dosed 97 weeks, study length 105 weeks
  TD50: 12400 mg/kg/day

## Oc1ccccc1
mouse, strain B6C3F1, females, in drinking water, site: any site (literature study), lesion: several types, types named in the paper, dosed 103 weeks, study length 104 weeks
  carcinogen call: negative (inactive)
mouse, strain B6C3F1, females, in drinking water, site: lung, lesion: alveolar/bronchiolar adenoma + alveolar/bronchiolar carcinoma, dosed 103 weeks, study length 104 weeks
  TD50: 18500 mg/kg/day
mouse, strain B6C3F1, males, in drinking water, site: any site (literature study), lesion: several types, types named in the paper, dosed 103 weeks, study length 104 weeks
  carcinogen call: negative (inactive)
mouse, strain B6C3F1, males, in drinking water, site: liver, lesion: hepatocellular adenoma + hepatocellular carcinoma + neoplastic nodule, dosed 103 weeks, study length 104 weeks
  TD50: 2450 mg/kg/day
mouse, strain B6C3F1, males, in drinking water, site: lung, lesion: alveolar/bronchiolar adenoma + alveolar/bronchiolar carcinoma, dosed 103 weeks, study length 104 weeks
  TD50: 8290 mg/kg/day
rat, strain Fischer 344, females, in drinking water, site: any site (literature study), lesion: several types, types named in the paper, dosed 103 weeks, study length 104 weeks
  carcinogen call: negative (inactive)
rat, strain Fischer 344, males, in drinking water, site: all sites, lesion: leukemia + lymphoma, dosed 103 weeks, study length 104 weeks
  TD50: 133 mg/kg/day
rat, strain Fischer 344, males, in drinking water, site: all sites, lesion: leukemia, dosed 103 weeks, study length 104 weeks
  TD50: 143 mg/kg/day
rat, strain Fischer 344, males, in drinking water, site: all sites, lesion: monocytic leukemia, dosed 103 weeks, study length 104 weeks
  TD50: 143 mg/kg/day
rat, strain Fischer 344, males, in drinking water, site: thyroid gland, lesion: c-cell carcinoma, dosed 103 weeks, study length 104 weeks
  TD50: 420 mg/kg/day (inactive)

## O=C1NC(c2ccc([N+](=O)[O-])s2)Nc2ccccc21 (stereo unspecified)
rat, strain Sprague-Dawley, females, in feed, site: any site (literature study), lesion: several types, types named in the paper, dosed 46 weeks, study length 66 weeks
  TD50: 1.53 mg/kg/day
rat, strain Sprague-Dawley, females, in feed, site: mammary gland, lesion: adenocarcinoma, dosed 46 weeks, study length 66 weeks
  TD50: 13.3 mg/kg/day

## O=C1NC(O)CCN1[C@@H]1O[C@H](CO)[C@@H](O)[C@H]1O (stereo partly specified)
rat, strain Fischer 344, males, i.p., site: any site (literature study), lesion: one or several types, types not named, dosed 52 weeks, study length 52 weeks
  TD50: 15.7 mg/kg/day

## C=C1C/C(=C/C)C(=O)O[C@@H]2CCN3CC=C(COC(=O)[C@@]1(O)CO)[C@H]23
mouse, strain B6C3F1, females, by gavage, site: all sites, lesion: hemangioma + hemangiosarcoma, dosed 105 weeks, study length 105 weeks
  TD50: 10 mg/kg/day
mouse, strain B6C3F1, females, by gavage, site: any site (literature study), lesion: several types, types named in the paper, dosed 105 weeks, study length 105 weeks
  TD50: 0.691 mg/kg/day
mouse, strain B6C3F1, females, by gavage, site: lung, lesion: alveolar/bronchiolar adenoma + alveolar/bronchiolar carcinoma, dosed 105 weeks, study length 105 weeks
  TD50: 1.99 mg/kg/day
mouse, strain B6C3F1, females, by gavage, site: lung, lesion: alveolar/bronchiolar adenoma, dosed 105 weeks, study length 105 weeks
  TD50: 2.68 mg/kg/day
mouse, strain B6C3F1, males, by gavage, site: all sites, lesion: hemangiosarcoma, dosed 104 weeks, study length 104 weeks
  TD50: 1.63 mg/kg/day
mouse, strain B6C3F1, males, by gavage, site: any site (literature study), lesion: several types, types named in the paper, dosed 104 weeks, study length 104 weeks
  TD50: 1.09 mg/kg/day
mouse, strain B6C3F1, males, by gavage, site: liver, lesion: hemangiosarcoma, dosed 104 weeks, study length 104 weeks
  TD50: 1.96 mg/kg/day
mouse, strain B6C3F1, males, by gavage, site: lung, lesion: alveolar/bronchiolar adenoma + alveolar/bronchiolar carcinoma, dosed 104 weeks, study length 104 weeks
  TD50: 5.57 mg/kg/day
rat, strain Fischer 344, females, by gavage, site: all sites + liver, lesion: mononuclear-cell leukemia + hemangiosarcoma + hepatocellular adenoma, dosed 102 weeks, study length 104 weeks
  TD50: 0.143 mg/kg/day
rat, strain Fischer 344, females, by gavage, site: all sites + liver, lesion: mononuclear-cell leukemia + hepatocellular adenoma, dosed 102 weeks, study length 104 weeks
  TD50: 0.234 mg/kg/day
rat, strain Fischer 344, females, by gavage, site: all sites, lesion: hemangiosarcoma, dosed 102 weeks, study length 104 weeks
  TD50: 0.446 mg/kg/day
rat, strain Fischer 344, females, by gavage, site: all sites, lesion: mononuclear-cell leukemia, dosed 102 weeks, study length 104 weeks
  TD50: 0.293 mg/kg/day
rat, strain Fischer 344, females, by gavage, site: any site (literature study), lesion: several types, types named in the paper, dosed 102 weeks, study length 104 weeks
  TD50: 0.0706 mg/kg/day
rat, strain Fischer 344, females, by gavage, site: liver, lesion: hemangiosarcoma, dosed 102 weeks, study length 104 weeks
  TD50: 0.457 mg/kg/day
rat, strain Fischer 344, females, by gavage, site: liver, lesion: hepatocellular adenoma + hepatoblastoma + hepatocellular carcinoma, dosed 102 weeks, study length 104 weeks
  TD50: 1.2 mg/kg/day
rat, strain Fischer 344, females, by gavage, site: liver, lesion: hepatocellular adenoma + hepatocellular carcinoma, dosed 102 weeks, study length 104 weeks
  TD50: 1.2 mg/kg/day
rat, strain Fischer 344, females, by gavage, site: liver, lesion: hepatocellular adenoma, dosed 102 weeks, study length 104 weeks
  TD50: 1.63 mg/kg/day
rat, strain Fischer 344, females, by gavage, site: thyroid gland, lesion: c-cell adenoma + c-cell adenoma, bilateral, dosed 102 weeks, study length 104 weeks
  TD50: 0.62 mg/kg/day
rat, strain Fischer 344, males, by gavage, site: all sites + liver, lesion: mononuclear-cell leukemia + hemangiosarcoma + hepatocellular adenoma, dosed 71 weeks, study length 71 weeks
  TD50: 0.0665 mg/kg/day
rat, strain Fischer 344, males, by gavage, site: all sites + liver, lesion: mononuclear-cell leukemia + hepatocellular adenoma, dosed 71 weeks, study length 71 weeks
  TD50: 0.179 mg/kg/day
rat, strain Fischer 344, males, by gavage, site: all sites, lesion: mononuclear-cell leukemia, dosed 71 weeks, study length 71 weeks
  TD50: 0.232 mg/kg/day
rat, strain Fischer 344, males, by gavage, site: any site (literature study), lesion: several types, types named in the paper, dosed 71 weeks, study length 71 weeks
  TD50: 0.0267 mg/kg/day
rat, strain Fischer 344, males, by gavage, site: liver, lesion: hemangiosarcoma, dosed 71 weeks, study length 71 weeks
  TD50: 0.0744 mg/kg/day
rat, strain Fischer 344, males, by gavage, site: liver, lesion: hepatocellular adenoma + hepatoblastoma + hepatocellular carcinoma, dosed 71 weeks, study length 71 weeks
  TD50: 0.584 mg/kg/day
rat, strain Fischer 344, males, by gavage, site: liver, lesion: hepatocellular adenoma, dosed 71 weeks, study length 71 weeks
  TD50: 0.584 mg/kg/day
rat, strain Fischer 344, males, by gavage, site: lung, lesion: alveolar/bronchiolar adenoma, dosed 71 weeks, study length 71 weeks
  TD50: 0.528 mg/kg/day

## CC1CN(N=O)C(=O)NC1=O (stereo unspecified)
rat, strain MRC-Wistar, females, in drinking water, site: any site (literature study), lesion: several types, types named in the paper, dosed 52 weeks, study length 127 weeks
  carcinogen call: negative (inactive)
rat, strain MRC-Wistar, females, in drinking water, site: liver, lesion: several types, types named in the paper, dosed 52 weeks, study length 127 weeks
  TD50: 31.2 mg/kg/day
rat, strain MRC-Wistar, males, in drinking water, site: any site (literature study), lesion: several types, types named in the paper, dosed 52 weeks, study length 127 weeks
  carcinogen call: negative (inactive)
rat, strain MRC-Wistar, males, in drinking water, site: liver, lesion: one or several types, types not named, dosed 52 weeks, study length 127 weeks
  carcinogen call: negative (inactive)

## O=[N+]([O-])c1ccc(NCCO)c(OCCO)c1
mouse, strain B6C3F1, females, in feed, site: any site (literature study), lesion: several types, types named in the paper, dosed 103 weeks, study length 104 weeks
  carcinogen call: negative (inactive)
[1]
  carcinogen call: negative (inactive)
rat, strain Fischer 344, females, in feed, site: any site (literature study), lesion: several types, types named in the paper, dosed 103 weeks, study length 104 weeks
  carcinogen call: negative (inactive)
rat, strain Fischer 344, males, in feed, site: pituitary gland, lesion: pars distalis adenoma, dosed 103 weeks, study length 104 weeks
  TD50: 465 mg/kg/day

## C[C@@H]1C[C@H](C)CN(S(=O)(=O)c2ccc(Cl)c(C(=O)O)c2)C1
rat, strain Fischer 344, males, in feed, site: liver, lesion: hepatocellular carcinoma, dosed 70 weeks, study length 71 weeks
  TD50: 4.85 mg/kg/day

## CCCCC(CC)COC(=O)CCCCC(=O)OCC(CC)CCCC (stereo unspecified)
mouse, strain B6C3F1, females, in feed, site: liver, lesion: hepatocellular adenoma + hepatocellular carcinoma + neoplastic nodule, dosed 103 weeks, study length 105 weeks
  TD50: 3840 mg/kg/day
mouse, strain B6C3F1, females, in feed, site: liver, lesion: hepatocellular adenoma + hepatocellular carcinoma, dosed 103 weeks, study length 105 weeks
  TD50: 3840 mg/kg/day
mouse, strain B6C3F1, females, in feed, site: liver, lesion: hepatocellular carcinoma, dosed 103 weeks, study length 105 weeks
  TD50: 3050 mg/kg/day
[2]
  TD50: 5330 mg/kg/day
mouse, strain B6C3F1, males, in feed, site: liver, lesion: hepatocellular adenoma + hepatocellular carcinoma, dosed 103 weeks, study length 104 weeks
  TD50: 5330 mg/kg/day
mouse, strain B6C3F1, males, in feed, site: liver, lesion: hepatocellular adenoma, dosed 103 weeks, study length 104 weeks
  TD50: 9040 mg/kg/day
mouse, strain B6C3F1, males, in feed, site: lung, lesion: alveolar/bronchiolar adenoma + alveolar/bronchiolar carcinoma, dosed 103 weeks, study length 104 weeks
  TD50: 11700 mg/kg/day
rat, strain Fischer 344, females, in feed, site: any site (literature study), lesion: several types, types named in the paper, dosed 103 weeks, study length 105 weeks
  carcinogen call: negative (inactive)
rat, strain Fischer 344, females, in feed, site: liver, lesion: hepatocellular adenoma + hepatocellular carcinoma + neoplastic nodule, dosed 103 weeks, study length 105 weeks
  TD50: 14500 mg/kg/day
rat, strain Fischer 344, males, in feed, site: any site (literature study), lesion: several types, types named in the paper, dosed 103 weeks, study length 104 weeks
  carcinogen call: negative (inactive)

## OCCO
mouse, strain B6C3F1, females, in feed, site: any site (literature study), lesion: several types, types named in the paper, dosed 103 weeks, study length 105 weeks
  carcinogen call: negative (inactive)
mouse, strain B6C3F1, females, in feed, site: lung, lesion: alveolar/bronchiolar adenoma + alveolar/bronchiolar carcinoma, dosed 103 weeks, study length 105 weeks
  TD50: 11300 mg/kg/day
mouse, strain B6C3F1, males, in feed, site: Harderian gland, lesion: adenoma + carcinoma, dosed 103 weeks, study length 104 weeks
  TD50: 19200 mg/kg/day (inactive)
[1]
  TD50: 9980 mg/kg/day
[2]
  TD50: 48100 mg/kg/day

## c1ccc2c(c1)ccc1cc3c(ccc4ccccc43)cc12
mouse, strain DBA/2, males, in drinking water, site: lung, lesion: alveolar-cell carcinoma, dosed 60 weeks, study length 60 weeks
  TD50: 5.88 mg/kg/day
